In patent US9994617B2, “Modulation of structured polypeptide specificity” (BICYCLE THERAPEUTICS LIMITED, priority 2011, dated 2018):
Numbered stars: 1 amine (or outer) side, 2 acyl side, 3 side chain; on linkers, the order of the positions; unused ones are H or OH. Bridge positions count the residues as written; N and C are the ends. Peptide text beside a SMILES is read from it. TBMB = c1c(C[*:1])cc(C[*:3])cc1C[*:2]

Molecular target: human plasma kallikrein (hPK) (Homo sapiens, UniProt P03952)
Experiment: Enzyme inhibition assay, human plasma kallikrein
Conditions: for fold reduction in affinity to kallikrein compared to wildtype peptide: versus Ac-06-34-18(TMB)-NH2

For `CC(=O)N[C@H]1CSCc2cc3cc(c2)CSC[C@H](NC(=O)[C@H](Cc2ccc(NC(=N)N)cc2)NC(=O)[C@H](C)NC(=O)[C@@H]2CCCN2C(=O)[C@H](Cc2c[nH]c4ccccc24)NC(=O)[C@H](CO)NC1=O)C(=O)N[C@@H](CC(C)C)C(=O)N[C@@H](Cc1c[nH]cn1)C(=O)N[C@@H](CCC(N)=O)C(=O)N[C@@H](CC(=O)O)C(=O)N[C@@H](CC(C)C)C(=O)N[C@H](C(N)=O)CSC3` [Ac-(06-34-18) 4GuanPhe5], the Ki was 0.0003 µM and the “fold reduction in affinity to kallikrein compared to wildtype peptide” value (“fold reduction in affinity to kallikrein” below) was 2 fold.

For `CC(=O)N[C@H]1CSCc2cc3cc(c2)CSC[C@H](NC(=O)[C@H](CCCNC(=N)N)NC(=O)[C@H](C)NC(=O)[C@H](C)NC(=O)[C@H](C)NC(=O)[C@H](CO)NC1=O)C(=O)N[C@@H](CC(C)C)C(=O)N[C@@H](Cc1c[nH]cn1)C(=O)N[C@@H](CCC(N)=O)C(=O)N[C@@H](CC(=O)O)C(=O)N[C@@H](CC(C)C)C(=O)N[C@H](C(N)=O)CSC3` [Ac-(06-34-18) A2A3] (Ac-CSAAARCLHQDLC-NH2; linker 1-7-13 via TBMB), the Ki was 18.5 µM.

Compound `CC(=O)N[C@H]1CSCc2cc3cc(c2)CSC[C@H](NC(=O)[C@H](CCCNC(=N)N)NC(=O)[C@H](C)NC(=O)[C@H](CCC(N)=O)NC(=O)[C@H](C)NC(=O)[C@H](CO)NC1=O)C(=O)N[C@@H](CC(C)C)C(=O)N[C@@H](Cc1c[nH]cn1)C(=O)N[C@@H](CCC(N)=O)C(=O)N[C@@H](CC(=O)O)C(=O)N[C@@H](CC(C)C)C(=O)N[C@H](C(N)=O)CSC3` [Ac-(06-34-18) A2Q3] (Ac-CSAQARCLHQDLC-NH2; linker 1-7-13 via TBMB) has a Ki of 15.8 µM.

For `CC(=O)N[C@H]1CSCc2cc3cc(c2)CSC[C@H](NC(=O)[C@H](CCNC(=N)N)NC(=O)[C@H](C)NC(=O)[C@@H]2CCCN2C(=O)[C@H](Cc2c[nH]c4ccccc24)NC(=O)[C@H](CO)NC1=O)C(=O)N[C@@H](CC(C)C)C(=O)N[C@@H](Cc1c[nH]cn1)C(=O)N[C@@H](CCC(N)=O)C(=O)N[C@@H](CC(=O)O)C(=O)N[C@@H](CC(C)C)C(=O)N[C@H](C(N)=O)CSC3` [Ac-(06-34-18) Agb5], the Ki was 0.083 µM.

`CC(=O)N[C@H]1CSCc2cc3cc(c2)CSC[C@H](NC(=O)[C@H](CNC(=N)N)NC(=O)[C@H](C)NC(=O)[C@@H]2CCCN2C(=O)[C@H](Cc2c[nH]c4ccccc24)NC(=O)[C@H](CO)NC1=O)C(=O)N[C@@H](CC(C)C)C(=O)N[C@@H](Cc1c[nH]cn1)C(=O)N[C@@H](CCC(N)=O)C(=O)N[C@@H](CC(=O)O)C(=O)N[C@@H](CC(C)C)C(=O)N[C@H](C(N)=O)CSC3` [Ac-(06-34-18) Agp5] was tested, and the Ki was 1.77 µM.

Work on `CC(=O)N[C@H]1CSCc2cc3cc(c2)CSC[C@H](NC(=O)[C@H](CCCNC(N)=O)NC(=O)[C@H](C)NC(=O)[C@@H]2CCCN2C(=O)[C@H](Cc2c[nH]c4ccccc24)NC(=O)[C@H](CO)NC1=O)C(=O)N[C@@H](CC(C)C)C(=O)N[C@@H](Cc1c[nH]cn1)C(=O)N[C@@H](CCC(N)=O)C(=O)N[C@@H](CC(=O)O)C(=O)N[C@@H](CC(C)C)C(=O)N[C@H](C(N)=O)CSC3` [Ac-(06-34-18) CitS] yielded a Ki of 7.86 µM.

With `CC(=O)N[C@H]1CSCc2cc3cc(c2)CSC[C@H](NC(=O)[C@H](CCCNC(=N)N)NC(=O)[C@@H](C)NC(=O)[C@@H]2CCCN2C(=O)[C@H](Cc2c[nH]c4ccccc24)NC(=O)[C@H](CO)NC1=O)C(=O)N[C@@H](CC(C)C)C(=O)N[C@@H](Cc1c[nH]cn1)C(=O)N[C@@H](CCC(N)=O)C(=O)N[C@@H](CC(=O)O)C(=O)N[C@@H](CC(C)C)C(=O)N[C@H](C(N)=O)CSC3` [Ac-(06-34-18) D-Ala4] the Ki was 1.2 µM and the “fold reduction in affinity to kallikrein” value was 7000 fold.

In the case of `CC(=O)N[C@H]1CSCc2cc3cc(c2)CSC[C@H](NC(=O)[C@@H](CCCNC(=N)N)NC(=O)[C@H](C)NC(=O)[C@@H]2CCCN2C(=O)[C@H](Cc2c[nH]c4ccccc24)NC(=O)[C@H](CO)NC1=O)C(=O)N[C@@H](CC(C)C)C(=O)N[C@@H](Cc1c[nH]cn1)C(=O)N[C@@H](CCC(N)=O)C(=O)N[C@@H](CC(=O)O)C(=O)N[C@@H](CC(C)C)C(=O)N[C@H](C(N)=O)CSC3` [Ac-(06-34-18) D-Arg5], the Ki is reported as 0.052 µM and the “fold reduction in affinity to kallikrein” value is reported as 300 fold.
